The source made the active and inactive calls. The rule behind the calls is not given here. Residues, ends and D or L forms follow the SMILES beside them.
Experiments:
Mus musculus [1] = species on record: Mus musculus; experiment: Tested for antagonistic properties by using NC(1-13)-NH2 as agonist; Inactive at 10 uM; format: functional, organism-based
Mus musculus [2] = species on record: Mus musculus; experiment: Tested for maximal effect induced by agonist at 10 uM; Inactive; format: functional, organism-based
Mus musculus [3] = species on record: Mus musculus; experiment: Tested for apparent affinity on electrically stimulated mouse vas deferens at 10 uM; Inactive; format: functional, organism-based
Mus musculus [4] = species on record: Mus musculus; experiment: Tested for antagonistic properties by using NC(1-13)-NH2; In active at 10 uM; format: functional, organism-based
Mus musculus [5] = species on record: Mus musculus; experiment: Tested for maximal effect induced by agonist at 10 uM; Slight effect was detected; format: functional, organism-based
Mus musculus [6] = species on record: Mus musculus; experiment: Tested for apparent affinity on electrically stimulated mouse vas deferens at 10 uM; Slight effect was detected; format: functional, organism-based
Mus musculus [7] = species on record: Mus musculus; experiment: Tested for apparent affinity on electrically stimulated mouse vas deferens; format: functional, organism-based
Mus musculus [8] = species on record: Mus musculus; experiment: Tested for maximal effect induced by agonist; format: functional
Mus musculus [9] = species on record: Mus musculus; experiment: Tested for maximal effect induced by agonist at 10 uM; In active; format: functional, organism-based
Mus musculus [10] = species on record: Mus musculus; experiment: Tested for apparent affinity on electrically stimulated mouse vas deferens at 10 uM; In active; format: functional, organism-based

Compound | Log EC50 (Mus musculus [3]) | EC50 (Mus musculus [7]) | Emax (Mus musculus [2]) | Activity (Mus musculus [4]) | Emax (Mus musculus [8]) | further results
NC(=O)[C@H](Cc1ccccc1)NC(=O)CNC(=O)CNC(=O)[C@@H](N)Cc1ccccc1 (H-FGGF-NH2) | inactive | – | inactive | – | – | Activity (Mus musculus [1]): inactive
C[C@H](NC(=O)CNC(=O)[C@@H](NC(=O)[C@@H](Cc1ccccc1)NC(=O)CNC(=O)CNC(=O)[C@@H](N)Cc1ccccc1)[C@@H](C)O)C(=O)N[C@@H](CCCN=C(N)N)C(=O)N[C@@H](CCCCN)C(=O)N[C@@H](CO)C(=O)N[C@@H](C)C(=O)N[C@@H](CCCN=C(N)N)C(=O)N[C@@H](CCCCN)C(N)=O | – | – | – | inactive | – | Emax (Mus musculus [5]): crc incom; Log EC50 (Mus musculus [6]): crc incom
H-FGGFTGAAASARK-NH2 | – | – | – | inactive | – | Emax (Mus musculus [5]): crc incom; Log EC50 (Mus musculus [6]): crc incom
H-FGGFT-NH2 | inactive | – | inactive | inactive | – | –
C[C@H](NC(=O)CNC(=O)[C@@H](NC(=O)[C@H](Cc1ccccc1)NC(=O)CNC(=O)CNC(=O)[C@H](N)Cc1ccccc1)[C@@H](C)O)C(=O)N[C@@H](CCCN=C(N)N)C(=O)N[C@@H](CCCCN)C(=O)N[C@@H](CO)C(=O)N[C@@H](C)C(=O)N[C@@H](CCCN=C(N)N)C(=O)N[C@@H](CCCCN)C(N)=O | – | – | – | inactive | – | Emax (Mus musculus [5]): crc incom; Log EC50 (Mus musculus [6]): crc incom
CC(=O)N[C@@H](Cc1ccccc1)C(=O)NCC(=O)NCC(=O)N[C@@H](Cc1ccccc1)C(=O)N[C@H](C(=O)NCC(=O)N[C@@H](C)C(=O)N[C@@H](CCCN=C(N)N)C(=O)N[C@@H](CCCCN)C(=O)N[C@@H](CO)C(=O)N[C@@H](C)C(=O)N[C@@H](CCCN=C(N)N)C(=O)N[C@@H](CCCCN)C(N)=O)[C@@H](C)O | – | 1510 nM | – | – | -79% | –
H-FAAFTGARKSARK-NH2 | inactive | – | – | inactive | – | Emax (Mus musculus [9]): inactive
C[C@H](NC(=O)CNC(=O)[C@@H](NC(=O)[C@H](Cc1ccccc1)NC(=O)CNC(=O)CNC(=O)[C@@H](N)Cc1ccccc1)[C@@H](C)O)C(=O)N[C@@H](CCCNC(=N)N)C(=O)N[C@@H](CCCCN)C(=O)N[C@@H](CO)C(=O)N[C@@H](C)C(=O)N[C@@H](CCCNC(=N)N)C(=O)N[C@@H](CCCCN)C(N)=O | – | 17.8 nM | – | – | -84% | –
H-FGFTGARKSARK-NH2 | – | – | – | inactive | – | Log EC50 (Mus musculus [10]): inactive; Emax (Mus musculus [9]): inactive
C[C@H](NC(=O)CNC(=O)[C@@H](NC(=O)[C@H](Cc1ccccc1)NC(=O)CNC(=O)CNC(=O)[C@@H](N)Cc1ccccc1)[C@@H](C)O)C(=O)N[C@@H](CCCN=C(N)N)C(=O)N[C@@H](CCCCN)C(=O)N[C@@H](CO)C(=O)N[C@@H](C)C(=O)N[C@@H](CCCN=C(N)N)C(=O)O | inactive | – | inactive | inactive | – | –
CC(C)C[C@H](NC(=O)[C@H](CCCCN)NC(=O)[C@H](CCCNC(=N)N)NC(=O)[C@H](C)NC(=O)[C@H](CO)NC(=O)[C@H](CCCCN)NC(=O)[C@H](CCCNC(=N)N)NC(=O)[C@H](C)NC(=O)CNC(=O)[C@@H](NC(=O)[C@H](Cc1ccccc1)NC(=O)CNC(=O)CNC(=O)[C@@H](N)Cc1ccccc1)[C@@H](C)O)C(=O)N[C@@H](C)C(=O)N[C@@H](CC(N)=O)C(=O)N[C@@H](CCC(N)=O)C(=O)O [NOCICEPTIN] | – | 14.5 nM | – | – | -83% | –
H-FGGFTGARKSAR-NH2 | – | 871 nM | – | – | -79% | –
H-FGGFTGARKSA-NH2 | – | – | – | inactive | – | Emax (Mus musculus [5]): crc incom; Log EC50 (Mus musculus [6]): crc incom
H-FGGLTGARKSARK-NH2 | inactive | – | inactive | inactive | – | –

Now from value to compound, other results behind:

Log EC50 (Mus musculus [3]) | EC50 (Mus musculus [7]) | Compound | Emax (Mus musculus [2]) | Activity (Mus musculus [4]) | Emax (Mus musculus [8]) | further results
inactive | – | C=CCN(CC=C)[C@@H](Cc1ccccc1)C(=O)NCC(=O)NCC(=O)N[C@@H](Cc1ccccc1)C(=O)N[C@H](C(=O)NCC(=O)N[C@@H](C)C(=O)N[C@@H](CCCN=C(N)N)C(=O)N[C@@H](CCCCN)C(=O)N[C@@H](CO)C(=O)N[C@@H](C)C(=O)N[C@@H](CCCN=C(N)N)C(=O)N[C@@H](CCCCN)C(N)=O)[C@@H](C)O | inactive | inactive | – | –
– | 28.2 nM | H-LGGFTGARKSARK-NH2 | – | – | -80% | –
– | 2240 nM | C[C@H](NC(=O)CNC(=O)[C@@H](NC(=O)[C@H](Cc1ccccc1)NC(=O)CNC(=O)CNC(=O)[C@@H](N)Cc1ccccc1)[C@@H](C)O)C(=O)N[C@@H](CCCN=C(N)N)C(=O)N[C@@H](CCCCN)C(=O)N[C@@H](CO)C(=O)N[C@@H](C)C(=O)N[C@@H](CCCN=C(N)N)C(=O)N[C@@H](CCCCN)C(=O)O | – | – | -73% | –
inactive | – | H-FGGFTGARK-NH2 | inactive | inactive | – | –

From ChEMBL document CHEMBL1130384, “Address and message sequences for the nociceptin receptor: a structure-activity study of nociceptin-(1-13)-peptide amide” (J Med Chem, 1997)
